{
  "source": "patent US12364689B2",
  "about": "“Dosage regimen for the treatment of cancer” (AstraZeneca AB, priority 2020, dated 2025)",
  "origin": "cited, not measured here",
  "key": {"[1]": {"biological_target": "T1, ERα receptor (Homo sapiens, UniProt P03372)", "T1 sequence (P03372 1-595)": "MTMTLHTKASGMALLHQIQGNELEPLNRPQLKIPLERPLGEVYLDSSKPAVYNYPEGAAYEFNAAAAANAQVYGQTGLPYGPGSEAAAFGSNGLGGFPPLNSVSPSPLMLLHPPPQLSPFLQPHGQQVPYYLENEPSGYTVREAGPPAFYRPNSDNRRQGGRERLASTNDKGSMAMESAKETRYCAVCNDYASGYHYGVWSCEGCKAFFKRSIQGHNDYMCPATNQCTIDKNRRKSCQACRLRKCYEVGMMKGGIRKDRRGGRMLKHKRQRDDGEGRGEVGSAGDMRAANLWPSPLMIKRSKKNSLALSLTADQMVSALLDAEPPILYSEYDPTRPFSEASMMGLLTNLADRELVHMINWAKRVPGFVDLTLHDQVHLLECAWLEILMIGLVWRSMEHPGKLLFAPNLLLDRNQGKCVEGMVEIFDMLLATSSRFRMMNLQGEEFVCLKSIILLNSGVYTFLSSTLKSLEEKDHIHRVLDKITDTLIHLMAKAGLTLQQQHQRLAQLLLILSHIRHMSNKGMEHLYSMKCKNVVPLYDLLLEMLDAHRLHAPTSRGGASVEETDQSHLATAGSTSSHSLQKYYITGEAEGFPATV", "details": "500 mg monthly dose; cited from earlier work"}, "[2]": {"biological_target": "T1, ERα receptor", "details": "in vitro breast cell line experiments; cited from earlier work"}},
  "data": [
    {"compound": "C[C@]12CC[C@@H]3c4ccc(O)cc4C[C@@H](CCCCCCCCC[S+]([O-])CCCC(F)(F)C(F)(F)F)[C@H]3[C@@H]1CC[C@@H]2O", "note": "(some centres unmarked) [Fulvestrant, fulvestrant]", "values": [
      {"measurement": "turnover of the receptor in patient samples", "setting": "[1]", "value": "less than 50%"},
      {"measurement": "down-regulation of the receptor", "setting": "[2]", "value": "complete down-regulation"}
    ]}
  ]
}
